Data: ChEMBL document CHEMBL1201862, “PubChem BioAssay data set” (2004)
Values belong to the compound of their own block, whether it stands above or below them. Calls of active or inactive are those of the source.

Assays:
cells = format: functional, cell-based
[1] = target: T1, Nuclear receptor subfamily 0 group B member 1 (Homo sapiens, UniProt P51843); format: functional, cell-based;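 also: HEK293T cells transfected with SF-1 and DAX-1 plus StAR promoter luciferase reporter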
T1 sequence (P51843 whole entry): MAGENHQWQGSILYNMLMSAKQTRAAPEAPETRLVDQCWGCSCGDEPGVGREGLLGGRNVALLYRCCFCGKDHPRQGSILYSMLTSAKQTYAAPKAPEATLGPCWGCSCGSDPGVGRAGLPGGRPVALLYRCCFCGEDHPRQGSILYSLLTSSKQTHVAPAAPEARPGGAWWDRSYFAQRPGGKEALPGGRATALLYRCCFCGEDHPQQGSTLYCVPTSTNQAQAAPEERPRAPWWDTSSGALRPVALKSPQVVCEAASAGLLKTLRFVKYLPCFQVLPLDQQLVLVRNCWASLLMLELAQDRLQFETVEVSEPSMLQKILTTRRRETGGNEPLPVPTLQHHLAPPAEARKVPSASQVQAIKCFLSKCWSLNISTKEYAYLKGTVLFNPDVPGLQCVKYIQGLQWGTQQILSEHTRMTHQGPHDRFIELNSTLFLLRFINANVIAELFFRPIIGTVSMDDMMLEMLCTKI

[2] = target: Ras and Rab interactor 1/Tyrosine-protein kinase ABL1 (Homo sapiens, UniProt P00519+Q13671); format: functional;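 also: biochemical TR-FRET dose-response test measuring inhibition of binding between Rin1 and Abl proteins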
Sequence of Ras and Rab interactor 1/Tyrosine-protein kinase ABL1 (P00519 whole entry): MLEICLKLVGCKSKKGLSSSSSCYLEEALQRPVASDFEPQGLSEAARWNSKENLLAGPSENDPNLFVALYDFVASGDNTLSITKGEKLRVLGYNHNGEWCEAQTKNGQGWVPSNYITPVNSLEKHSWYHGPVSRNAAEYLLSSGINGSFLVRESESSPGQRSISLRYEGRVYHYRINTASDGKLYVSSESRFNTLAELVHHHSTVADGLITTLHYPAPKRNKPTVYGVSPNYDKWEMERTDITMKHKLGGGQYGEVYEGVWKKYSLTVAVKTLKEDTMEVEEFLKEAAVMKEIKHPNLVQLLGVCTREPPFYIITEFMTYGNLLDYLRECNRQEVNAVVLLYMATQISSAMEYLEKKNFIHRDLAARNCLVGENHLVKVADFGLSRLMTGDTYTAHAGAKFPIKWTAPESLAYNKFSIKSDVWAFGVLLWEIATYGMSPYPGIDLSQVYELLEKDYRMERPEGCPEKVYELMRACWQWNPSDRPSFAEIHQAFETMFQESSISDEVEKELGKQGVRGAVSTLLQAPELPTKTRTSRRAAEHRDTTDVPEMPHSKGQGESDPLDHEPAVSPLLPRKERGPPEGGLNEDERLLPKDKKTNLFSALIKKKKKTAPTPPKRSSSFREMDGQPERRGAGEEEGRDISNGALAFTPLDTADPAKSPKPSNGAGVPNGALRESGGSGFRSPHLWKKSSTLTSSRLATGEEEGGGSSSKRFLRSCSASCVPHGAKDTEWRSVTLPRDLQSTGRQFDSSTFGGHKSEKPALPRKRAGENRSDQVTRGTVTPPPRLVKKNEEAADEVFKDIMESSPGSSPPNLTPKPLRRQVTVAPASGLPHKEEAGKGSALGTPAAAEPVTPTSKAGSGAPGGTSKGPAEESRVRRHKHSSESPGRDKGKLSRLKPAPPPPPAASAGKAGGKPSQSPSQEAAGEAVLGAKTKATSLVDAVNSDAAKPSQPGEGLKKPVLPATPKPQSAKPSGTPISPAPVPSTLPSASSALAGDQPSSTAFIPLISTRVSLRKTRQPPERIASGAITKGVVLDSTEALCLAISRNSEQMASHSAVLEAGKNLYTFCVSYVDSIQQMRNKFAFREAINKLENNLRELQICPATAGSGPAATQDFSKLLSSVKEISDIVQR
Sequence of Ras and Rab interactor 1/Tyrosine-protein kinase ABL1 (Q13671 whole entry): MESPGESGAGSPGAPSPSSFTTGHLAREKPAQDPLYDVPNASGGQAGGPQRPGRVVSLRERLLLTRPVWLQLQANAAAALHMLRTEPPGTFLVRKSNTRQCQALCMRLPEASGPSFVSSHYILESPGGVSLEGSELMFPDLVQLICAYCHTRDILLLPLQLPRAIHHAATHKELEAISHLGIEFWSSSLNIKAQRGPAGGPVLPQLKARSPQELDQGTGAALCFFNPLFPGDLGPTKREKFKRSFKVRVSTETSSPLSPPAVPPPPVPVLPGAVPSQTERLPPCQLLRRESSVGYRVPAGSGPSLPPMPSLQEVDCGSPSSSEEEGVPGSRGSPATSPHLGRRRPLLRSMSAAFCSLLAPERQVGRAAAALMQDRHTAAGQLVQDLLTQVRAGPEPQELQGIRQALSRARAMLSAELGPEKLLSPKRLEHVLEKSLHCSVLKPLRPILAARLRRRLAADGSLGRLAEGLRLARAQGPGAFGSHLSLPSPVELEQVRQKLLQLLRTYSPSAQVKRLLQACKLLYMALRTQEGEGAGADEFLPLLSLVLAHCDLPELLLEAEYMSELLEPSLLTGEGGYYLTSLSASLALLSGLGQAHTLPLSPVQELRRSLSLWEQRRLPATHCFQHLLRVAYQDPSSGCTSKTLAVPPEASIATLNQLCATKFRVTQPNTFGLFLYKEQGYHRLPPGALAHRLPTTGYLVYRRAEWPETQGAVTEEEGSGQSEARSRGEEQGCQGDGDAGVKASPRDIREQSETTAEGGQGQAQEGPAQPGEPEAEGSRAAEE

[3] = target: T2, COUP transcription factor 2 (Homo sapiens, UniProt P24468); assay: Luminescence-based cell-based high throughput dose response assay to identify inhibitors of COUP-TFII (NR2F2).; format: functional;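 also: HEK293 cells transiently cotransfected with COUP-TFII expression vector and reporter; luciferase reporter luminescence driven by COUP-TFII from the pX2-168 reporter plasmid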
T2 sequence (P24468 whole entry): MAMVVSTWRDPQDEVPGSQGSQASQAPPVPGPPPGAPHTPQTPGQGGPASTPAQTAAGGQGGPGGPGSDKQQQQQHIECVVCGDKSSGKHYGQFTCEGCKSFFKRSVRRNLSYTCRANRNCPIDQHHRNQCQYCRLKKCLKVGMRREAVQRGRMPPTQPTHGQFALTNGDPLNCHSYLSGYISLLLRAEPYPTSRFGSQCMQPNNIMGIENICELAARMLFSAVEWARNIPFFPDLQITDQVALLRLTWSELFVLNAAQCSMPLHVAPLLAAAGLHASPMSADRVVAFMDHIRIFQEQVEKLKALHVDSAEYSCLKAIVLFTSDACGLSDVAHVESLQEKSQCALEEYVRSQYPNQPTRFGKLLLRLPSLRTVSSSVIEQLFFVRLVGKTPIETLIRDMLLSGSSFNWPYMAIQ

Melanocortin receptor 4 = Melanocortin receptor 4 (Homo sapiens, UniProt P32245); format: functional, cell-based;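 also: Cell-based assay with luminescence read-out, confirmatory dose-response testing for agonist activity of biased ligands at MC4R; human U2OS cells with tagged receptor and beta-arrestin; potency of agonists that increase receptor coupling to beta-arrestin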
Sequence of Melanocortin receptor 4 (P32245 whole entry): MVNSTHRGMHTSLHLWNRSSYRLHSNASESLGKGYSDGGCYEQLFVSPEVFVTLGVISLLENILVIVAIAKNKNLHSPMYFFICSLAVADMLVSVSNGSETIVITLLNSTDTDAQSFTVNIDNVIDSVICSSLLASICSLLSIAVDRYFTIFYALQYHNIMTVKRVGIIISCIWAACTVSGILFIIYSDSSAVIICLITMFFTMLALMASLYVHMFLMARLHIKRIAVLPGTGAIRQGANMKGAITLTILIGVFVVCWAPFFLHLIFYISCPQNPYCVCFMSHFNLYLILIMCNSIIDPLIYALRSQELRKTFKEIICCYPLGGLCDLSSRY

[4] = target: Nuclear receptor subfamily 5 group A member 2 (Homo sapiens, UniProt O00482); format: functional, cell-based;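 also: HEK293T cells transfected with LRH-1 and a StAR promoter luciferase reporter; potency for inhibitors that lower LRH-1 driven reporter light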
Sequence of Nuclear receptor subfamily 5 group A member 2 (O00482 whole entry): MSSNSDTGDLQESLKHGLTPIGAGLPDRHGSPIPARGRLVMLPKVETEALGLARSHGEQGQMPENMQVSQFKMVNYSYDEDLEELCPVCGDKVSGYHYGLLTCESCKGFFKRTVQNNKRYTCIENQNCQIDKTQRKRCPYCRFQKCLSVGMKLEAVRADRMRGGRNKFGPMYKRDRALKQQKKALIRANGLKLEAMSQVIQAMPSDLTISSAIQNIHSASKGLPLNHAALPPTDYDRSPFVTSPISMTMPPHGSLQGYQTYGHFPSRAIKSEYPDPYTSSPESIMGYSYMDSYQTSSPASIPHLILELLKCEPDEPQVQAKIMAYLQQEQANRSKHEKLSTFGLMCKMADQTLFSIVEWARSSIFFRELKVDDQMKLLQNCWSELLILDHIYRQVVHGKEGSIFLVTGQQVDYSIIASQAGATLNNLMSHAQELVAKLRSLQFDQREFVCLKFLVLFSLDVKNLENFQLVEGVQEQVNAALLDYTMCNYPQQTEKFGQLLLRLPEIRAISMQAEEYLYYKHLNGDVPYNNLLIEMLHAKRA

Steroidogenic factor 1 = Steroidogenic factor 1 (Homo sapiens, UniProt Q13285); assay: Counterscreen for inverse agonists of the liver receptor homolog-1 (LRH-1; NR5A2): Luminescence-based cell-based high throughput dose response assay to identify inverse agonists of the Steroidogenic Factor 1 Nuclear Receptor (SF1; NR5A1).; format: functional
Sequence of Steroidogenic factor 1 (Q13285 whole entry): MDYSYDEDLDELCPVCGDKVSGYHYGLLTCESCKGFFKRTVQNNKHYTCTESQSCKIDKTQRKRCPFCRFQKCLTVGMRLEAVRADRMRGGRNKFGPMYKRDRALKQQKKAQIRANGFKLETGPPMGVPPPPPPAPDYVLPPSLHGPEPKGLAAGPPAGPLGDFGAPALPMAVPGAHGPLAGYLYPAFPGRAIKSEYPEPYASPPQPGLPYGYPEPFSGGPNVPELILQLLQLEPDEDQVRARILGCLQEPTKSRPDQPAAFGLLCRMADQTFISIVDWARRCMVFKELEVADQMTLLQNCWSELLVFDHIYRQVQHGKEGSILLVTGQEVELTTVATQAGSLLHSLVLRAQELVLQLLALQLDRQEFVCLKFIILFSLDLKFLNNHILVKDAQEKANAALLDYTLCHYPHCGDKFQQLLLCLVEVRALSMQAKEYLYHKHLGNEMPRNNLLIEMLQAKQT

[5] = StAR promoter reporter inhibition counter-screen, dose response, counter-screen for LRH-1 inverse agonist project, cell-based, luminescence, luciferase reporter (AID 651969); format: functional
[6] = target: T3, Small ubiquitin-related modifier 2 (Homo sapiens, UniProt P61956); assay: SUMO2–SIM peptide binding inhibitors, dose response, selectivity assay for SUMO1 interaction inhibitor project, biochemical, fluorescence polarization, uHTS hits (AID 624385); format: functional; conditions: read-out: IC50_Mean
T3 sequence (P61956 whole entry): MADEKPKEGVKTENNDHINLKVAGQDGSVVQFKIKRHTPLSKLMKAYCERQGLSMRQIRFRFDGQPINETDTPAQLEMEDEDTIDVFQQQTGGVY

[7] = target: T4, Small ubiquitin-related modifier 1 (Homo sapiens, UniProt P63165); assay: inhibitors of SUMO1 peptide binding, dose response, biochemical, fluorescence polarization, uHTS hits (AID 624382); format: functional; conditions: read-out: IC50_Mean
T4 sequence (P63165 whole entry): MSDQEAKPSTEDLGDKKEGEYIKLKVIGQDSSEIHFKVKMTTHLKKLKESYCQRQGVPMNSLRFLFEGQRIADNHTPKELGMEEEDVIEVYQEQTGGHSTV

[8] = target: T3, Small ubiquitin-related modifier 2; assay: inhibitors of SUMO2 protein-protein interaction, dose response, selectivity assay for SUMO1 interaction inhibitor project, biochemical, FRET, human SUMO2, uHTS hits (AID 624384); format: functional; conditions: read-out: IC50_Mean
[9] = target: T4, Small ubiquitin-related modifier 1; assay: inhibitors of SUMO1 partner interactions, dose response, biochemical, FRET (AID 624383); format: functional; conditions: read-out: IC50_Mean

Structure (SMILES): O=c1oc2ccccc2cc1-c1nc2c(s1)CCCC2
IC50 (cells): > 67.5 µM (inactive)
IC50 [1]: > 0.278 µM (active)

IC50 [2]: > 73.5 µM (inactive)
Structure (SMILES): CCCCc1nnc(NC(=O)c2ccc(OCc3c(C)noc3C)cc2)s1

IC50 [2]: 16.7 µM (inactive)
IC50 [3]: 8.62 µM (active)
Structure (SMILES): OC[C@@H]1CN(Cc2ccc(-c3ccccc3)cc2)C[C@H](n2cnc3c(NC4CCC4)ncnc32)O1

Structure (SMILES): CC(=O)Nc1cc(-c2cccnc2)cn2c(-c3ccc(F)cc3)cnc12
EC50 (Melanocortin receptor 4): > 89.2 µM (inactive)
IC50 [4]: 22.3 µM (inactive)
IC50 (Steroidogenic factor 1): 4.56 µM (active)
IC50 [5]: 35.9 µM (inactive)

Structure (SMILES): C[C@H]([C@@H](O)[C@@H](O)[C@@H](C)C(C)(C)C)[C@H]1CC[C@H]2[C@@H]3CC[C@H]4C[C@H](OS(=O)(=O)O)[C@@H](OS(=O)(=O)O)C[C@]4(C)[C@H]3CC[C@]12C
IC50 [6]: 25.5 µM (inactive)
IC50 [7]: 11 µM (active)
IC50 [8]: 16.3 µM (active)
IC50 [9]: 22.5 µM (inactive)
